PubChem BioAssay AID212 (DTP/NCI, 2004)
Values joined by “and” are separate entries in the source; they are usually repeats but may differ in a detail not shown here. Equal values may be shown once. Inconclusive results are not listed.

Test system: BDF1 mice, colon carcinoma 38 sc, T/C %
Assay: NCI In Vivo Anticancer Drug Screen. Data for tumor model Colon Carcinoma 38 (subcutaneous) in B6D2F1 (BDF1) mice
Conditions: endpoint: median tumor weight (est.), higher = larger tumour
Procedure: The antitumor activity of compounds was measured in mice bearing transplantable tumors. Survival or tumor size were measured and the results are expressed as the measurement made in the treated group (T) divided by the measurement made in the vehicle treated control group (C). The tumor model used in this assay is Colon Carcinoma 38 (subcutaneous) in B6D2F1 (BDF1) mice

## CCc1ccccc1N1CCN(C(=O)c2cc(OC)c(OC)c(OC)c2)CC1
dose: 12.5 mg/kg/injection, schedule: Q07DX003 (ip), vehicle: Klucel (hydroxypropylcellulose) (HPC)
  T/C: 92 % of control
dose: 25.0 mg/kg/injection, schedule: Q07DX003 (ip), vehicle: Klucel (hydroxypropylcellulose) (HPC)
  T/C: 96 % of control
dose: 50.0 mg/kg/injection, schedule: Q07DX003 (ip), vehicle: Klucel (hydroxypropylcellulose) (HPC)
  T/C: 47 % of control
dose: 100.0 mg/kg/injection, schedule: Q07DX003 (ip), vehicle: Klucel (hydroxypropylcellulose) (HPC)
  T/C: 64 % of control
dose: 200.0 mg/kg/injection, schedule: Q07DX003 (ip), vehicle: Klucel (hydroxypropylcellulose) (HPC)
  T/C: 54 % of control
dose: 400.0 mg/kg/injection, schedule: Q07DX003 (ip), vehicle: Klucel (hydroxypropylcellulose) (HPC)
  T/C: 13 % of control

## CN(C(=S)S(=O)(=O)C12CC3CC(CC(C3)C1)C2)c1ccccc1
dose: 3.12 mg/kg/injection, schedule: Q07DX002 (ip), vehicle: Klucel (hydroxypropylcellulose) (HPC)
  T/C: 104 % of control
dose: 6.25 mg/kg/injection, schedule: Q07DX002 (ip), vehicle: Klucel (hydroxypropylcellulose) (HPC)
  T/C: 92 % of control and 102 % of control
dose: 12.5 mg/kg/injection, schedule: Q07DX002 (ip), vehicle: Klucel (hydroxypropylcellulose) (HPC)
  T/C: 116 % of control and 93 % of control
dose: 50.0 mg/kg/injection, schedule: Q07DX002 (ip), vehicle: Klucel (hydroxypropylcellulose) (HPC)
  T/C: 101 % of control and 106 % of control
dose: 100.0 mg/kg/injection, schedule: Q07DX002 (ip), vehicle: Klucel (hydroxypropylcellulose) (HPC)
  T/C: 115 % of control
dose: 200.0 mg/kg/injection, schedule: Q07DX002 (ip), vehicle: Klucel (hydroxypropylcellulose) (HPC)
  T/C: 105 % of control

## O=S(=O)(CCl)OCCCl
dose: 12.5 mg/kg/injection, schedule: Q07DX002 (ip), vehicle: saline with Tween-80
  T/C: 103 % of control
dose: 25.0 mg/kg/injection, schedule: Q07DX002 (ip), vehicle: saline with Tween-80
  T/C: 111 % of control
dose: 50.0 mg/kg/injection, schedule: Q07DX002 (ip), vehicle: saline with Tween-80
  T/C: 58 % of control
dose: 100.0 mg/kg/injection, schedule: Q07DX002 (ip), vehicle: saline with Tween-80
  T/C: 55 % of control

## COC(=O)C(N)Cc1ccc(O)c(O)c1 (stereo not given)
dose: 50.0 mg/kg/injection, schedule: Q07DX002 (ip), vehicle: saline
  T/C: 85 % of control
dose: 100.0 mg/kg/injection, schedule: Q07DX002 (ip), vehicle: saline
  T/C: 113 % of control
dose: 200.0 mg/kg/injection, schedule: Q07DX002 (ip), vehicle: saline
  T/C: 88 % of control
dose: 400.0 mg/kg/injection, schedule: Q07DX002 (ip), vehicle: saline
  T/C: 99 % of control
dose: 800.0 mg/kg/injection, schedule: Q07DX002 (ip), vehicle: saline
  T/C: 110 % of control
dose: 1600.0 mg/kg/injection, schedule: Q07DX002 (ip), vehicle: saline
  T/C: 51 % of control

## CC1(O)C=CC(=O)C=C1
dose: 50.0 mg/kg/injection, schedule: Q07DX002 (ip), vehicle: water
  T/C: 114 % of control

## CO[C@H]1C[C@@H]2CC[C@@H](C)[C@@](O)(O2)C(=O)C(=O)N2CCCC[C@H]2C(=O)O[C@H]([C@H](C)C[C@@H]2CC[C@@H](O)[C@H](OC)C2)CC(=O)[C@H](C)C=C(C)[C@@H](O)[C@@H](OC)C(=O)[C@H](C)C[C@H](C)/C=C/C=C/C=C1C
dose: 12.5 mg/kg/injection, schedule: Q07DX003 (ip), vehicle: saline with Tween-80
  T/C: 40 % of control and 45 % of control
dose: 25.0 mg/kg/injection, schedule: Q07DX003 (ip), vehicle: saline with Tween-80
  T/C: 26 % of control and 45 % of control
dose: 50.0 mg/kg/injection, schedule: Q07DX003 (ip), vehicle: saline with Tween-80
  T/C: 20 % of control and 39 % of control
dose: 100.0 mg/kg/injection, schedule: Q07DX003 (ip), vehicle: saline with Tween-80
  T/C: 33 % of control
dose: 200.0 mg/kg/injection, schedule: Q07DX003 (ip), vehicle: saline with Tween-80
  T/C: 14 % of control and 25 % of control
dose: 400.0 mg/kg/injection, schedule: Q07DX003 (ip), vehicle: saline with Tween-80
  T/C: 14 % of control and 23 % of control

## CC1=CC2C(O)(CC(CO)=CC3C4C(C)(C)C4(OC(=O)c4ccccc4)C(OC(=O)c4ccccc4)C(C)C32O)C1=O (stereo not given)
dose: 0.5 mg/kg/injection, schedule: Q07DX002 (ip), vehicle: saline with Tween-80
  T/C: 156 % of control
dose: 2.0 mg/kg/injection, schedule: Q07DX002 (ip), vehicle: saline with Tween-80
  T/C: 167 % of control

## COc1cc2c(cc1O)C1C(O)C(O)C=C3CCN(C2)C31 (stereo not given)
dose: 4.0 mg/kg/injection, schedule: Q07DX002 (ip), vehicle: saline + alcohol
  T/C: 105 % of control
dose: 8.0 mg/kg/injection, schedule: Q07DX002 (ip), vehicle: saline + alcohol
  T/C: 79 % of control
dose: 16.0 mg/kg/injection, schedule: Q07DX002 (ip), vehicle: saline + alcohol
  T/C: 105 % of control
dose: 32.0 mg/kg/injection, schedule: Q07DX002 (ip), vehicle: saline + alcohol
  T/C: 73 % of control
